Laboratory results: paper PMC7551886, “Antitumour Effects of Astaxanthin and Adonixanthin on Glioblastoma” (Marine Drugs, 2020)

Experiments:
[1] = system: GL261 cells; assay: BrdU cell proliferation assay; format: cell-based, mouse; conditions: GL261, 10 µM treatment for 72 h; control group 60.56 ± 1.40%
Method: GL261 cells were seeded onto 96-well plates at a density of 2 × 10^3 cells/well with DMEM supplemented with 10% FBS and then incubated for 24 h, after which the culture medium was changed to DMEM containing 10% FBS. Then, astaxanthin, adonixanthin, or temozolomide (Tokyo Chemical Industry Co., Ltd., Tokyo, Japan) were added to the culture. After 72 h of culture, the culture medium was changed to DMEM containing 10% FBS and treated with BrdU at 10 µM for 3 h. After that, immunocytochemistry was performed according to the protocol of anti-BrdU antibody (abcam, ab6326).

[2] = system: p38 mitogen-activated protein kinase; assay: Immunoblotting, phosphorylation of p38 MAPK in GL261; format: cell-based, mouse; conditions: GL261, 10 µM, 48 h
Method: (§1) GL261 cell was seeded at 2.5 × 10^4 cells per well in 24-well plates with culture medium supplemented with 10% FBS. After 24 h of incubation, the medium was changed to DMEM containing 10% FBS and 0.1%DMSO PBS, 300 μM temozolomide, 10 μM astaxanthin, or 10 μM adonixanthin was added for 6 and 48 h. Cells were lysed in a special buffer (RIPA buffer R0278; Sigma-Aldrich, St. Louis, MO, USA) with a protease inhibitor cocktail (Sigma-Aldrich), phosphatase inhibitor cocktails 2 and 3 (Sigma-Aldrich), and sample buffer (Wako, Osaka, Japan). The protein concentration was determined by comparison with a known concentration of bovine serum albumin using the BCA Protein Assay Kit (Thermo Fisher Scientific). The amount of total protein was 2 μg. […] The band intensity was […] using an Immuno Star LD (Wako). Band intensity was measured using an LAS-4000 UV mini Luminescent Image Analyzer (Fujifilm, Tokyo Japan) and Multi Gauge Version 3.0 (Fujifilm). The phosphorylation of ERK1/2, Akt, and p38 MAPK was measured by normalizing against total ERK1/2, total Akt, and total p38 MAPK. […]

[3] = system: MMP-2; assay: Immunoblotting, MMP-2 expression in GL261; format: cell-based, mouse; conditions: GL261, 10 µM, 48 h
Method: as §1

[4] = system: NADPH oxidase 4 (Nox4); assay: Immunoblotting, Nox4 expression in GL261; format: cell-based, mouse; conditions: GL261, 10 µM, 6 h
Method: as §1

[5] = system: GL261 cells; assay: Cell viability (CCK-8 assay) in GL261; format: cell-based, mouse; conditions: GL261, treated for 96 h
Method: U251MG, GL261, or U87MG cells were seeded onto 96-well plates at a density of 2 × 10^3 cells/well with DMEM supplemented with 10% FBS and then incubated for 24 h, after which the culture medium was changed to DMEM containing 10% FBS. Then, astaxanthin, adonixanthin or temozolomide (Tokyo Chemical Industry Co., Ltd., Tokyo, Japan) were added to the culture. Cell proliferation was determined using the CCK-8 assay according to the manufacturer’s instructions (Dojindo, Kumamoto, Japan). After each incubation, 10 μL of CCK-8 solution were added to each well. Plates were incubated for 3 h for 37 °C, and the absorbance was read at 450 nm with a reference wavelength of 630 nm using a Varioscan Flash 2.4 microplate reader (Thermo Fisher Scientific, Waltham, MA, USA).

[6] = system: p27; assay: Immunoblotting, p27 expression in GL261; format: cell-based, mouse; conditions: GL261, 10 µM, 48 h
Method: as §1, with “μg. Equal amounts of protein in sample buffer containing 10% 2-mercaptoethanol were subjected to sodium dodecyl sulphate polyacrylamide gel electrophoresis (SDS-PAGE) in 5-20% gradient gels (SuperSep Ace; Wako), and the separated proteins were transferred to polyvinylidene difluoride membrane (Immobilon-P; Merck Millipore Corporation, Bedford, MA, USA). After blocking for 30 min with Blocking One-P (Nacalai Tesque), we incubated the membranes with primary antibodies overnight at 4 °C.” for “μg.”

[7] = ICR, mouse, in vivo, po
Method: In the experiment of the murine orthotopic glioblastoma model, oral administration of each astaxanthin (10 and 30 mg/kg) and adonixanthin (10 and 30 mg/kg) was initiated 3 days after intracranial injection of GL261 cells and was continued for 10 days. In the experiment of the brain tissue absorption with oral astaxanthin or adonixanthin, after one week of adaptation, ICR mice were randomly divided into the following three groups: control group, astaxanthin group (50 mg/kg), and adonixanthin group (50 mg/kg). Mice were orally administered each reagent suspended in olive oil (5 mL/kg) by the daily single dose for 10 days. The control group was treated by olive oil alone (5 mL/kg).
In mice, blood samples were collected under anaesthesia by using sodium pentobarbital (50 mg/kg, 10 mL/kg, i.p). To separate serum and from blood, we centrifuged at 1700 g for 10 min. […]
Carotenoid fraction was collected from blood and some tissues by silica gel HPLC using a Cosmosil 5SL-II column with acetone:hexane (2:8, v/v) for the mobile phase at a flow rate of 1.0 mL/min as described above. […] Identification of each carotenoid was performed by authentic carotenoids obtained from Paracoccus (ENEOS Corporation, Tokyo, Japan) by our routine methods and the content of each carotenoid was calculated from peak areas by comparison with the authentic samples.

phosphorylation of p38 MAPK [2] | expression of Nox4 [4] | concentration detected in the brain [7] | Compound | BrdU-positive cell rate [1] [%] | MMP-2 expression [3] | concentration above which cell viability was suppressed [5] | expression of p27 [6]
increased | significantly decreased | ~10 nM | CC1=C(/C=C/C(C)=C/C=C/C(C)=C/C=C/C=C(C)/C=C/C=C(C)/C=C/C2=C(C)C(=O)[C@@H](O)CC2(C)C)C(C)(C)C[C@H](O)C1 [Adonixanthin, adonixanthin] | 41.31 ± 1.51 | decreased | > 0.1 µM | increased
increased | no change | approximately 30 nM | CC1=C(/C=C/C(C)=C/C=C/C(C)=C/C=C/C=C(C)/C=C/C=C(C)/C=C/C2=C(C)C(=O)[C@@H](O)CC2(C)C)C(C)(C)C[C@H](O)C1=O [Astaxanthin, astaxanthin] | 49.13 ± 2.66 | decreased | more than 5 µM | increased
